Literature values as cited in patent publication US9949928B2, “Biodegradable copolymers, systems including the copolymers, and methods of forming and using same” (The Regents of the University of Colorado, a body corporate, priority 2013, dated 2018).

Conditions: cited from earlier work

For CC1(C)O[C@@H]2C[C@H]3[C@@H]4CCC5=CC(=O)C=C[C@]5(C)[C@@]4(F)[C@@H](O)C[C@]3(C)[C@]2(C(=O)CO)O1 [triamcinolone acetonide], the “log P” value is listed as 1.16.
